The results in this text go back to ChEMBL document CHEMBL1201862, “PubChem BioAssay data set” (2004).

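Each compound was tested at five concentrations against cells in 96-well plates for 48 hours. Abbreviation: GI50, concentration required for 50% inhibition of growth.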 The source made the active and inactive calls. Rule as the data show it: active = GI50 up to about 1.1 µM and inactive = higher.

Some test systems named below: OVCAR-8; HT-29; SF-539; MDA-MB-231; KM12; HOP-92; SNB-19; MDA-N; HOP-62; NCI-H23; TK-10; UACC-257; SK-OV-3; OVCAR-3; MCF7; HCT-116; SNB-75; Hs-578T; SK-MEL-28; CAKI-1.
What all share (assay): NCI anticancer screen, dose series, 48 h

With `Cc1nc2sc3ccccc3n2c(=O)c1/N=N/c1ccc(Br)cc1`, the GI50 is > 100 µM (inactive) in the test on OVCAR-8; > 100 µM (inactive) in the test with HT-29; > 100 µM (inactive) in the test on SF-539; 60.1 µM (inactive) in the test on MDA-MB-231; > 100 µM (inactive) in the test on KM12; 76.4 µM (inactive) in the test on HOP-92. Further, the GI50 in the test with SNB-19, with MDA-N, in the test on HOP-62, in the test with NCI-H23, with TK-10 and with UACC-257 was > 100 µM (inactive) throughout. For the same compound, the GI50 in the test with SK-OV-3 was > 100 µM (inactive); in the test with OVCAR-3 it was > 100 µM (inactive); in the test with MCF7, 81.3 µM (inactive); in the test on HCT-116 it was > 100 µM (inactive); in the test on SNB-75, > 100 µM (inactive); in the test with Hs-578T, 67.5 µM (inactive). The GI50 in the test with SK-MEL-28 and in the test on CAKI-1 was > 100 µM (inactive) throughout.

Consider `COc1nc(N)c(NC2OC(CO)C(O)C2O)c(=O)[nH]1` (stereo not given), for which the GI50 in the test with OVCAR-8, with HT-29, in the test with SF-539, in the test with MDA-MB-231, in the test with KM12 and with HOP-92 was > 100 µM (inactive) in each case. Besides, the GI50 in the test on SNB-19, with MDA-N, in the test with HOP-62, in the test with NCI-H23, in the test on TK-10 and with UACC-257 was > 100 µM (inactive) throughout. Also, the GI50 in the test on SK-OV-3, in the test with OVCAR-3, in the test with MCF7, in the test with HCT-116, in the test on SNB-75 and with Hs-578T was > 100 µM (inactive) each time. In addition, the GI50 with SK-MEL-28 and in the test on CAKI-1 was > 100 µM (inactive) throughout.

In the case of `O=C(O)C1OC(n2cc(F)c(=O)[nH]c2=O)CC1O` (stereo not given), the GI50 with OVCAR-8 is 17.5 µM (inactive); in the test on HT-29, 63.8 µM (inactive); in the test with SF-539, 1.87 µM (inactive); in the test with MDA-MB-231 it was > 39.1 µM (inactive); with KM12, > 95.9 µM (inactive); with HOP-92, 7.13 µM (inactive). Moreover, the GI50 is 52.5 µM (inactive) in the test with SNB-19; > 97.3 µM (inactive) in the test with MDA-N; 5.22 µM (inactive) in the test with HOP-62; 38.7 µM (inactive) with NCI-H23; > 100 µM (inactive) in the test on TK-10; > 100 µM (inactive) in the test with UACC-257. For the same compound, the GI50 is > 94.8 µM (inactive) with SK-OV-3; 60.1 µM (inactive) in the test with OVCAR-3; 0.9 µM (active) with MCF7; 23.1 µM (inactive) in the test with HCT-116; 6.11 µM (inactive) in the test on SNB-75; > 78.7 µM (inactive) in the test with Hs-578T. The GI50 with SK-MEL-28 was 53.1 µM (inactive); in the test on CAKI-1, > 39.5 µM (inactive).

For the compound `O=S1(=O)c2cnccc2N=C(NCc2cccc3ccccc23)N1c1ccccc1`, the GI50 is > 93.1 µM (inactive) in the test on OVCAR-8; > 100 µM (inactive) in the test on HT-29; > 100 µM (inactive) in the test on SF-539; > 43 µM (inactive) in the test with MDA-MB-231; > 100 µM (inactive) with KM12; > 41.2 µM (inactive) with HOP-92. In addition, the GI50 with SNB-19 was > 100 µM (inactive); with MDA-N, 13.2 µM (inactive); with HOP-62 it was > 100 µM (inactive); with NCI-H23, 36.2 µM (inactive); in the test with TK-10, 64.9 µM (inactive); in the test with UACC-257 it was > 100 µM (inactive). The GI50 in the test with SK-OV-3 is > 100 µM (inactive); in the test with OVCAR-3, > 100 µM (inactive); in the test on MCF7 it was 36.6 µM (inactive); in the test with HCT-116, 9.35 µM (inactive); in the test with SNB-75, > 100 µM (inactive); in the test on Hs-578T, > 73.3 µM (inactive). The GI50 with SK-MEL-28 and with CAKI-1 was > 100 µM (inactive) in each case.

Consider `N=C(N)SCc1cccc(-c2nc3ccccc3c(=O)o2)c1`, for which the GI50 with OVCAR-8, in the test with HT-29, in the test on SF-539, in the test on MDA-MB-231, with KM12 and in the test on HOP-92 was > 100 µM (inactive) in each case. For the same compound, the GI50 in the test with SNB-19, with MDA-N, in the test on HOP-62, with NCI-H23, in the test with TK-10 and in the test on UACC-257 was > 100 µM (inactive) throughout. For the same compound, the GI50 in the test with SK-OV-3, in the test on OVCAR-3, with MCF7, in the test with HCT-116, in the test on SNB-75 and in the test on Hs-578T was > 100 µM (inactive) each time. The GI50 with SK-MEL-28 and with CAKI-1 was > 100 µM (inactive) each time.

For `CC(=O)O[C@@H]1C[C@]2(C(=O)c3ccccc3)C(=O)C(=O)S[C@]12c1ccccc1`, the GI50 with OVCAR-8 was 36.4 µM (inactive); in the test on HT-29 it was 67.9 µM (inactive); in the test with SF-539, 24.2 µM (inactive); in the test on MDA-MB-231, 58.1 µM (inactive); in the test with KM12 it was 41.1 µM (inactive); with HOP-92 it was 47.8 µM (inactive). The GI50 was 39.8 µM (inactive) in the test with SNB-19; 30 µM (inactive) in the test with MDA-N; 61 µM (inactive) in the test with HOP-62; 45 µM (inactive) with NCI-H23; 55.7 µM (inactive) in the test on TK-10; 55.8 µM (inactive) with UACC-257. The GI50 with SK-OV-3 was 50 µM (inactive); with OVCAR-3, 69.8 µM (inactive); with MCF7 it was 30 µM (inactive); with HCT-116 it was 46.6 µM (inactive); in the test with SNB-75 it was 44 µM (inactive); in the test with Hs-578T, 39.5 µM (inactive). Further, the GI50 in the test with SK-MEL-28 is 58.3 µM (inactive); in the test on CAKI-1 it was 42.9 µM (inactive).

Regarding `O=C1Oc2ccccc2C(=O)/C1=C/N1C(=O)N/C(=C\c2ccccc2O)C1=O`, the GI50 with OVCAR-8 was 58.1 µM (inactive); in the test with HT-29 it was 54.7 µM (inactive); in the test on SF-539, 59.8 µM (inactive); in the test on MDA-MB-231 it was 36.9 µM (inactive); in the test on KM12, 56.8 µM (inactive); in the test on HOP-92, 11 µM (inactive). The GI50 in the test on SNB-19 is > 100 µM (inactive); with MDA-N, 60.7 µM (inactive); with HOP-62 it was 71.3 µM (inactive); in the test with NCI-H23 it was 59.8 µM (inactive); in the test with TK-10, 60.5 µM (inactive); in the test with UACC-257, 67.5 µM (inactive). The GI50 in the test on SK-OV-3 was > 62.7 µM (inactive); in the test with OVCAR-3 it was 32.7 µM (inactive); in the test on MCF7, 61.1 µM (inactive); with HCT-116, 36.6 µM (inactive); in the test with SNB-75 it was > 78.5 µM (inactive); in the test on Hs-578T, > 53.1 µM (inactive). The results for the GI50 with SK-MEL-28 and with CAKI-1 were > 84.9 µM (inactive) and 79.4 µM (inactive), respectively.

Regarding `CCCCCc1c(Cl)nc(Cl)nc1Cl`, the GI50 in the test with OVCAR-8 was 10.4 µM (inactive); in the test with HT-29, 3.59 µM (inactive); with SF-539 it was 16 µM (inactive); in the test on MDA-MB-231, 5.69 µM (inactive); with KM12, 13.9 µM (inactive); with HOP-92, 5.46 µM (inactive). In addition, the GI50 in the test with SNB-19 was 15.7 µM (inactive); in the test on MDA-N, 4.95 µM (inactive); in the test with HOP-62, 22.6 µM (inactive); with NCI-H23, 3.18 µM (inactive); in the test with TK-10, 12.1 µM (inactive); in the test with UACC-257, 13.9 µM (inactive). For the same compound, the GI50 with SK-OV-3 was 10.5 µM (inactive); in the test with OVCAR-3, 14.4 µM (inactive); with MCF7 it was 10.2 µM (inactive); with HCT-116 it was 3.82 µM (inactive); in the test with SNB-75 it was 0.589 µM (active); in the test on Hs-578T, 43.3 µM (inactive). Besides, the GI50 with SK-MEL-28 was 16.5 µM (inactive); in the test with CAKI-1, 2.88 µM (inactive).

Turning to `CC(C)c1c(O[Si](C(C)C)(C(C)C)C(C)C)cc2c(c1O)CC[C@H]1C(C)(C)CCC[C@]21C`, the GI50 with OVCAR-8, with HT-29, in the test on SF-539, with MDA-MB-231, in the test with KM12 and in the test on HOP-92 was > 100 µM (inactive) throughout. Moreover, the GI50 was > 100 µM (inactive) in the test on SNB-19; > 100 µM (inactive) in the test on MDA-N; > 100 µM (inactive) in the test on HOP-62; 97.5 µM (inactive) with NCI-H23; 6.12 µM (inactive) in the test with TK-10; > 100 µM (inactive) in the test on UACC-257. Besides, the GI50 with SK-OV-3 is > 100 µM (inactive); with OVCAR-3, > 100 µM (inactive); with MCF7 it was > 100 µM (inactive); in the test on HCT-116, > 100 µM (inactive); in the test with SNB-75 it was 50.6 µM (inactive); in the test on Hs-578T it was > 100 µM (inactive). Also, the GI50 in the test on SK-MEL-28 and in the test with CAKI-1 was > 100 µM (inactive) each time.

In the case of `N#CC(C#N)[C@@H]1CCC=C(Sc2ccccc2)[C@H]1Sc1ccccc1`, the GI50 with OVCAR-8 is 2.7 µM (inactive); in the test on HT-29, 3.87 µM (inactive); in the test with SF-539 it was 2 µM (inactive); in the test on MDA-MB-231, 4.05 µM (inactive); with KM12 it was 3 µM (inactive); with HOP-92, 3.39 µM (inactive). The GI50 in the test on SNB-19 is 12.8 µM (inactive); with MDA-N, 1.32 µM (inactive); with HOP-62 it was 3.2 µM (inactive); in the test on NCI-H23, 3.96 µM (inactive); with TK-10, 1.86 µM (inactive); with UACC-257, 2.26 µM (inactive). For the same compound, the GI50 in the test on SK-OV-3 was 4.54 µM (inactive); with OVCAR-3 it was 3.44 µM (inactive); in the test on MCF7, 2.95 µM (inactive); in the test on HCT-116 it was 2.11 µM (inactive); in the test with SNB-75 it was 5.08 µM (inactive); in the test on Hs-578T it was 5.16 µM (inactive). Also, the GI50 in the test with SK-MEL-28 was 2.72 µM (inactive); in the test with CAKI-1 it was 2.65 µM (inactive).
